This note sets out measurements from patent publication US20260266837A1, “Methods for Cancer Recurrence Detection and Treatment Thereof” (Institut Curie, priority 2022, published 2026).

SMILES strings stand for the structures.

One data set addresses T1, H3K27me3, EZH2 (Homo sapiens, UniProt Q15910).
T1 construct: endogenous in cells; host or cells: MDA-MB-468, HCC38 or BT20
As to the kind of experiment: Western blotting of EZH2i-treated cells. It counts as cell-based. The note with it: prior to chemotherapy treatment. As for the experimental part: Western blotting. In Extended FIG. 8b/e/g, DMSO- and EZH2i-treated cells were lysed at 95° C. for 10 minutes in Laemmli buffer (50 mM Tris-HCl [pH 6.8], 2% SDS, 5% glycerol, 2 mM DTT, 2.5 mM EDTA, 2.5 mM EGTA, 4 mM Sodium Orthovanadate, 20 mM Sodium Fluoride, protease inhibitors, phosphatase inhibitors) and proteins concentrations were measured using a Pierce BCA protein Assay Kit (Thermo Fisher Scientific, Ref: 23225/23227). 10 μg of proteins were then separated on a 4-15% Mini-PROTEAN TGX Stain-Free Gel (Bio-Rad, Ref: 4568085) at 160V. After transfer, the membrane was blocked for 1 h at room temperature in PBS pH 7.4 containing 0.1% Tween-20 and 1% milk (Regilait). Incubation anti-H3K27me3 (Dilution: 1:2000, Cell Signaling, Ref: 9733) or EZH2 (Dilution: 1:2000, Cell Signaling, Ref: 5246) or Tubulin (Dilution: 1:1000, Thermo Fisher Scientific, Ref: 31460) primary antibodies diluted in PBS pH 7.4, 0.1% Tween-20 were performed at 4° C. overnight.
Background: In western blotting, separated proteins are transferred to a membrane and probed.

The subject of a further data set is MDA-MB-468 cells. Briefly: Lineage barcode frequencies and diversity under 5-FU with EZH2i. It counts as cell-based, human. An excerpt: Lentivirus packaging and cell transduction. Lentivirus was produced by transfecting the barcode plasmids pRRL-CMV-GFP-BCv2Ascl and p8.9-QV and pVSVG into HEK293T cells as previously described^30. MDA-MB-468 cells from ATCC were infected at passage 11 with lentivirus produced from the barcode library (pRRL-CMV-GFP-BCv 2Ascl) which includes 18206 different barcodes of 20 bp of a random stretch, at a low multiplicity of infection (MOI 0.1) to minimize the number of cells marked by multiple barcodes. Three weeks after transduction, cells were sorted for GFP expression to select cells with barcode insertion, and used for drug treatment.
Bulk lineage barcode library preparation and sequencing. Lineage barcodes are recovered by isolating genomic DNA from cells of interest (NucleoSpin Tissue, Mini kit for DNA from cells and tissue, Macherey Nagel, Ref: 740952.50). From the isolated genomic DNA, barcodes are amplified with three nested PCR steps as decribed in^30 (see Extended Table 1 for primer sequence). In short, after a first specific PCR for the common region of the lineage barcodes, the amplified material was prepared for sequencing by addition of the illumina sequencing adaptaters and indexing and purification. Sequencing was done in order to obtain 50 reads, on average, per barcoded cell.
Single-cell lineage barcode extraction from 10× datasets. […] To avoid running scripts on all reads we: 1. used samtools to extract all unmapped reads from the 10× output bam file, 2. used awk to take reads with either a 3′ or 5′ 20 bp match to the constant flanking region of the barcode allowing one mismatch, 3. retained only reads with both a 10× cell barcode and 10× UMI. We then located the 20 bp match to one of the constant flanking regions allowing one mismatch (but filtered out reads where a mismatch was in the first or last base to ensure the barcode is at the expected position). We then further required a 4 bp exact match on the other side of the barcode, and then extracted the 20 bp viral barcode, read name, 10× cell barcode and 10× UMI.
To assign one viral barcode to each 10× cell barcode, we determined a consensus viral barcode for each UMI. For each position in the barcode we returned the most frequently observed base and the proportion of reads supporting this consensus. Barcodes associated with a 10× CB-UMI pair were filtered if the proportion of reads supporting a position was ≤0.5 at ≥3 positions. […]
Bulk barcode pre-processing. […] In brief, using R-3.4.0 (R Development Core Team (2019) http://www.R-project.org), raw reads were first filtered for perfect to the input index-and common-sequences using XCALIBR (https://github.com/NKI-GCF/xcalibr) and filtered against the barcode reference list. […]

T1 sequence (Q15910 whole entry): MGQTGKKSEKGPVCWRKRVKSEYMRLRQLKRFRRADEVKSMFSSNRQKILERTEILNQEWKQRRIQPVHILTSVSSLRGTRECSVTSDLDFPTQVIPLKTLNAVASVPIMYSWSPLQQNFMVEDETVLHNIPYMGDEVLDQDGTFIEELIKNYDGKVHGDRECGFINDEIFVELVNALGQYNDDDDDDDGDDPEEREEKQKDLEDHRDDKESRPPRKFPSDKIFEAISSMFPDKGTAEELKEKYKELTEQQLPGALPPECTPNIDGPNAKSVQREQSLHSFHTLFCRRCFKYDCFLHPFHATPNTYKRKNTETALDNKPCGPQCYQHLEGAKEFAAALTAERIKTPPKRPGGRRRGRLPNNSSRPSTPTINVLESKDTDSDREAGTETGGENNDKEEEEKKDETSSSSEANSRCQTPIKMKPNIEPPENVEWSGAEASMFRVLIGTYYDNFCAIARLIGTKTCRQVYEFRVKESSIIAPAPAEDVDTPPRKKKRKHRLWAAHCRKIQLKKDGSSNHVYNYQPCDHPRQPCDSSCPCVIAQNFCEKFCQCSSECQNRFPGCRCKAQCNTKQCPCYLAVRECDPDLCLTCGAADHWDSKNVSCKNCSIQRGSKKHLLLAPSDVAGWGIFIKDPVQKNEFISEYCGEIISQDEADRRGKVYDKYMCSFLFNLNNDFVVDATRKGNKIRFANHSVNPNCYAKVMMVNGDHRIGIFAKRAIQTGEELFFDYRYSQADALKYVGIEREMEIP
T1 sequence (O75530 whole entry partner): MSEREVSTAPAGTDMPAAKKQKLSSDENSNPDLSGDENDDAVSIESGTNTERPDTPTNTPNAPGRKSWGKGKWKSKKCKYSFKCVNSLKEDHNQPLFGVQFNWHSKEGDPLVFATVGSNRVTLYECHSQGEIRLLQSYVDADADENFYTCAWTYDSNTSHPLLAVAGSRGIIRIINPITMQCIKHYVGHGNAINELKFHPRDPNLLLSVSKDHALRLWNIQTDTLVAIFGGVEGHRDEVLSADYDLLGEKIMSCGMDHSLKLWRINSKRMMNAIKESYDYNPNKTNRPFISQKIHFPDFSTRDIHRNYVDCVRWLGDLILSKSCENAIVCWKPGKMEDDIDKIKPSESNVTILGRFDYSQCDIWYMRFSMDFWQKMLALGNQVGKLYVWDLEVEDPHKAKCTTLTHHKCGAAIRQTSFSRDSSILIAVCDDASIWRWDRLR
T1 sequence (Q15022 whole entry partner): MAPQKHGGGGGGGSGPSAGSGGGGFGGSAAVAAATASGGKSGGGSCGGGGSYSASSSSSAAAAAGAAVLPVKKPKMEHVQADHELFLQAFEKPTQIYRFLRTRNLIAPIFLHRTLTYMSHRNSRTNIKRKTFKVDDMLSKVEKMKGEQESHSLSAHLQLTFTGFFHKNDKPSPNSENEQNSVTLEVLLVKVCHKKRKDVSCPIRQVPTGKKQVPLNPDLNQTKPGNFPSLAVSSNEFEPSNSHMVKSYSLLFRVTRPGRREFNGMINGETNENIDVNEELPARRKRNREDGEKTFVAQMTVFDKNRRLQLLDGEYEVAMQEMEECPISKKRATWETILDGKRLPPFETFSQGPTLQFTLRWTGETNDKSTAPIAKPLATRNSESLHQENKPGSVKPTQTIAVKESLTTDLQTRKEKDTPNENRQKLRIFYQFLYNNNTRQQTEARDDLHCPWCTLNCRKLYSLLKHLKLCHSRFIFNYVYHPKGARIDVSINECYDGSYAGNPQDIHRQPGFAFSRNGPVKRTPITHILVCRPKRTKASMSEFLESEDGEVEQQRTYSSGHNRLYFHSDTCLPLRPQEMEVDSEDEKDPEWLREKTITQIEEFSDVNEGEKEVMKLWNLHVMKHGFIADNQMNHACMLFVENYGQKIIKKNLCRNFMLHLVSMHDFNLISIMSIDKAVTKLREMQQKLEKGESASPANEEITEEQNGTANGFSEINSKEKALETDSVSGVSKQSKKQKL

`CCCc1cc(C)[nH]c(=O)c1CNC(=O)c1cc(-c2ccc(N3CCN(C(C)C)CC3)nc2)cc2c1cnn2C(C)C` [EZH2i-1]: at H3K27me3, EZH2, the EZH2 protein levels result is “without perturbing EZH2 protein levels” and the H3K27me3 level result is “erasing H3K27me3”. Also, the “diversity in lineage barcodes in CDH2+ persister populations” value in the data set on MDA-MB-468 cells (R3 cluster, 5-FU with versus without EZH2i-1, p<10^-4) is listed as “over 2 fold-increase”. In the data set on MDA-MB-468 cells (co-treatment with 5-FU, bulk lineage barcodes), the “correlation scores between lineage frequencies in 5-FU and DMSO treated population” value is “increased correlation scores”.
